Marks after values point to notes of the source that are not given here.
How the values were obtained:
[1] = test system: GH-RH receptor isoforms on membrane fractions of human PC-3 prostate tumors; assay type: binding; conditions: general statement
Summary of the method: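 Competitive displacement of [^125I]JV-1-42 from crude membranes of human PC-3 prostate tumours grown as nude-mouse xenografts, with unlabelled peptides at 10^−12 to 10^−6 M. Bound radioactivity in the centrifuged pellet gamma-counted; Ki from Munson–Rodbard analysis. Relative affinity = Ki of reference peptide (JV-1-36 or JV-1-38) / Ki of test antagonist.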

[2] = test system: PC-3 human prostate cancer xenografts; assay: PC-3 xenografts in nude mice, Experiment 4: tumor growth; assay type: in vivo; conditions: for Tumor volume (mm^3) Final / Tumor volume doubling time / Tumor weight / Tumor volume Final (% inhibition) / Tumor weight (% inhibition): 5 μg/day s.c., 28 days; for Tumor volume Final (% inhibition) / Tumor weight (% inhibition): vs control; for Tumor volume (mm^3) Initial: at start of treatment
Description: (§1) Male nude mice were implanted s.c. with 3 mm^3 pieces of PC-3 human hormone-independent prostate cancer tissue on both flanks. When tumors reached a volume of approximately 65 mm^3, the mice were divided into 7 experimental groups with 8 to 9 animals in each group and received single daily injections for 28 days as follows: 1. Control (vehicle solution); 2. JV-1-38 (10 μg/day s.c.); 3. Peptide 35 (10 μg/day s.c.); 4. Peptide 36 (10 μg/day s.c.); 5. Peptide 37 (10 μd/day s.c.); 6. Peptide 39 (10 μg/day s.c.); 7. Peptide 41 (10 μg/day s.c.). Tumor volumes were measured twice a week. The experiment was ended on day 28 by sacrificing the mice under Isofurane anesthesia. Resulting tumors were cleaned, weighed, and snapfrozen until further analyses. Trunk blood was collected from the abdominal aorta and serum was separated for RIA measurement of IGF-I. Statistical analyses of the measurement results were done by ANOVA followed by Fisher test; data are presented as the means±S.E.
(§2) All experimental details of Experiment 4 are the same as for Experiment 3, with the following difference. When tumors reached a volume of approximately 55 mm^3, the mice were divided into 5 experimental groups with 8 to 9 animals in each group and received single daily injections for 28 days as follows: 1. Control (vehicle solution); 2. Peptide 80 (5 μg/day s.c.); 3. Peptide 86 (5 μg/day s.c.); 4. Peptide 95 (5 μg/day s.c.); 5. Peptide 96 (5 μg/day s.c.). Further details of Experiment 4 are the same as for Experiment 3.

IGF-I = assay: PC-3 xenografts, Experiment 4: serum IGF-I (RIA); assay type: in vivo, nude mice; conditions: 5 μg/day s.c., 28 days; for Serum IGF-I (% inhibition): vs control
Source text: For the measurement of GH and IGF-I levels in the serum, as well as IGF-I and IGF-II concentrations in the cytosol fraction of tumors, blood samples and tumor samples were collected and processed as described (Braczkowski R, Schally A V, Plonowski A, Varga J L, Groot K, Krupa M, Armatis P, Cancer 95: 1735-1745, 2002), hereby incorporated by reference. Briefly, blood samples are centrifuged to separate the serum, tumors are homogenized and centrifuged to separate the cytosol fraction. Serum GH is then measured by the double-antibody RIA method. Before measurement by RIA, IGF-I and IGF-II are extracted from serum and cytosol fractions using an acid-ethanol cryoprecipitation method that eliminates most of the IGF binding proteins, which can interfere with the RIA. IGF-I concentration is measured by RIA using IGF-I as a standard and goat anti-IGF-I antibody (both from DSL Inc., Webster, Tex.). IGF-II concentration is measured by RIA using human recombinant IGF-II (Bachem) as a standard and anti-IGF-II monoclonal antibody (Amano International Enzyme, Troy, Va.).
as §1, §2

In the case of “[CH3(CH2)6CO-Tyr^1, D-Arg^2, Phe(pCl)^6, Ala^8, His^9, Tyr(Et)^10, His^11, Abu^15, His^20, Nle^27, D-Arg^28, Har^29]hGH-RH(1-29)NH2 [Peptide 86]”, the “binding affinities to the tumoral receptors for GH-RH (in words)” value (“binding affinities” for short) [1] is reported as “extremely high binding affinities”, the “Tumor volume (mm^3) Final” value [2] is reported as 397 ± 71.8* mm^3 and the “Tumor volume doubling time” value [2] is reported as 12.1 ± 1.40 days. For the same substance, the “Tumor weight” value [2] was 643 ± 94.9 mg, the “Tumor volume Final (% inhibition)” value [2] was 68% and the “Tumor weight (% inhibition)” value [2] was 56%. For the same substance, the “Tumor volume (mm^3) Initial” value [2] was 56.1 ± 8.67 mm^3, the “Serum IGF-I” value (IGF-I) was 118 ± 8.94 ng/mL and the “Serum IGF-I (% inhibition)” value (IGF-I) was 28%.
“[CH3(CH2)6CO-Tyr^1, D-Arg^2, Phe(pCl)^6, Ala^8, His^9, Tyr(Et)^10, His^11, Orn^12, Abu^15, His^20, Orn^21, Nle^27, D-Arg^28, Har^29]hGH-RH(1-29)NH2 [Peptide 96]” was tested, and the “binding affinities” value [1] was “extremely high binding affinities”, the “antitumor effect on PC-3 tumors (in words)” value ([2]; 5 μg/day) was “strongest antitumor effect” and the “Tumor volume (mm^3) Final” value [2] was 301 ± 65.2** mm^3. The “Tumor volume doubling time” value [2] was 11.0 ± 0.87 days, the “Tumor weight” value [2] was 489 ± 114 mg and the “Tumor volume Final (% inhibition)” value [2] was 77%. The “Tumor weight (% inhibition)” value [2] was 66%, the “Tumor volume (mm^3) Initial” value [2] was 56.2 ± 13.3 mm^3 and the “Serum IGF-I” value (IGF-I) was 114 ± 15.5 ng/mL. For the same substance, the “Serum IGF-I (% inhibition)” value (IGF-I) was 31%.
For “[CH3(CH2)6CO-Tyr^1, D-Arg^2, Phe(pCl)^6, Ala^8, His^9, Tyr(Et)^10, His^11, Orn^12, Abu^15, Orn^21, Nle^27, D-Arg^28, Har^29]hGH-RH(1-29)NH2 [Peptide 95]”, the “binding affinities” value [1] was “extremely high binding affinities”, the “Tumor volume (mm^3) Final” value [2] was 393 ± 79.8* mm^3 and the “Tumor volume doubling time” value [2] was 12.5 ± 1.80 days. For the same substance, the “Tumor weight” value [2] was 666 ± 131 mg, the “Tumor volume Final (% inhibition)” value [2] was 69% and the “Tumor weight (% inhibition)” value [2] was 54%. For the same substance, the “Tumor volume (mm^3) Initial” value [2] was 60.9 ± 12.2 mm^3, the “Serum IGF-I” value (IGF-I) was 127 ± 17.5 ng/mL and the “Serum IGF-I (% inhibition)” value (IGF-I) was 23%.

Source: patent US7452865B2, “Antagonistic analogs of GH RH (2003)” (The Administrare's of the Tulane Educational Fund, priority 2004, dated 2008)
